From article PMC7046186, “Targeting tRNA-synthetase interactions towards novel therapeutic discovery against eukaryotic pathogens” (PLoS Neglected Tropical Diseases, 2020)

Key:
Type in all cases: biochemical
human AlaRS [1] = target: T1, human AlaRS (Homo sapiens, UniProt P49588); test: ATP/PPi exchange; settings: 2 mM ATP, 90 μM alanine, 2 mM [32P]-PPi, 10 mM Mg2+, pH 7.2, 37 °C
T1 construct: gene AARS1; pET21a, C-terminal 6x-His tag; expressed in E. coli Rosetta(DE3)
T1 sequence (P49588 1-968): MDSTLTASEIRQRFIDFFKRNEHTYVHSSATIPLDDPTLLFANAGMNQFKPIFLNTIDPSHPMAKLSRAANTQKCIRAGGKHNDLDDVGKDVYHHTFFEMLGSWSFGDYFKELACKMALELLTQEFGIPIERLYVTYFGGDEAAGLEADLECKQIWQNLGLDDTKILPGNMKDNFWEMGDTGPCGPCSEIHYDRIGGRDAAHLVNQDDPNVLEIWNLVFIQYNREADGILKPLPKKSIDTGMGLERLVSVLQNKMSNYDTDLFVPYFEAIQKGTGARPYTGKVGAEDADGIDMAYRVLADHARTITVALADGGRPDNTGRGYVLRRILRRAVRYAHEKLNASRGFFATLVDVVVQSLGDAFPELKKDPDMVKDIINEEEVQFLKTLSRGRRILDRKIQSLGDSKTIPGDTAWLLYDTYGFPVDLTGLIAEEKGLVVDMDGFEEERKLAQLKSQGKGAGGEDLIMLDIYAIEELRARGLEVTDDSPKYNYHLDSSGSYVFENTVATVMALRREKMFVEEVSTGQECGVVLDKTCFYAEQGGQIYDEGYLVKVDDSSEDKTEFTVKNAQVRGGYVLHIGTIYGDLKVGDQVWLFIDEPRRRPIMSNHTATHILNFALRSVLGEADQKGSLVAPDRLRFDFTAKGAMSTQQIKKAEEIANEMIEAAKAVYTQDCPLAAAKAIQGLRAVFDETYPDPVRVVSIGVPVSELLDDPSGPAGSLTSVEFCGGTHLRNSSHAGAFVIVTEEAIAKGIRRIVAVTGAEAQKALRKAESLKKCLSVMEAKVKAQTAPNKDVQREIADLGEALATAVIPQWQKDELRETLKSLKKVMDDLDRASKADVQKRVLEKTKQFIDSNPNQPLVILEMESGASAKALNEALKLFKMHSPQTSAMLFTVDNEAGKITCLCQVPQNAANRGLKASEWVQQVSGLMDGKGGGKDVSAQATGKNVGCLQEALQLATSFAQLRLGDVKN

Lm AlaRS = target: T2, Lm AlaRS (Leishmania major, UniProt Q4QBJ3); test: ATP/PPi exchange; settings: 2 mM ATP, 90 μM alanine, 2 mM [32P]-PPi, 10 mM Mg2+, pH 7.2, 37 °C
T2 construct: gene LMJF_22_1540; codon-optimised synthetic gene in pTYB2; C-terminal intein tag cleaved off; expressed in E. coli BL21(DE3)
T2 sequence (Q4QBJ3 1-962): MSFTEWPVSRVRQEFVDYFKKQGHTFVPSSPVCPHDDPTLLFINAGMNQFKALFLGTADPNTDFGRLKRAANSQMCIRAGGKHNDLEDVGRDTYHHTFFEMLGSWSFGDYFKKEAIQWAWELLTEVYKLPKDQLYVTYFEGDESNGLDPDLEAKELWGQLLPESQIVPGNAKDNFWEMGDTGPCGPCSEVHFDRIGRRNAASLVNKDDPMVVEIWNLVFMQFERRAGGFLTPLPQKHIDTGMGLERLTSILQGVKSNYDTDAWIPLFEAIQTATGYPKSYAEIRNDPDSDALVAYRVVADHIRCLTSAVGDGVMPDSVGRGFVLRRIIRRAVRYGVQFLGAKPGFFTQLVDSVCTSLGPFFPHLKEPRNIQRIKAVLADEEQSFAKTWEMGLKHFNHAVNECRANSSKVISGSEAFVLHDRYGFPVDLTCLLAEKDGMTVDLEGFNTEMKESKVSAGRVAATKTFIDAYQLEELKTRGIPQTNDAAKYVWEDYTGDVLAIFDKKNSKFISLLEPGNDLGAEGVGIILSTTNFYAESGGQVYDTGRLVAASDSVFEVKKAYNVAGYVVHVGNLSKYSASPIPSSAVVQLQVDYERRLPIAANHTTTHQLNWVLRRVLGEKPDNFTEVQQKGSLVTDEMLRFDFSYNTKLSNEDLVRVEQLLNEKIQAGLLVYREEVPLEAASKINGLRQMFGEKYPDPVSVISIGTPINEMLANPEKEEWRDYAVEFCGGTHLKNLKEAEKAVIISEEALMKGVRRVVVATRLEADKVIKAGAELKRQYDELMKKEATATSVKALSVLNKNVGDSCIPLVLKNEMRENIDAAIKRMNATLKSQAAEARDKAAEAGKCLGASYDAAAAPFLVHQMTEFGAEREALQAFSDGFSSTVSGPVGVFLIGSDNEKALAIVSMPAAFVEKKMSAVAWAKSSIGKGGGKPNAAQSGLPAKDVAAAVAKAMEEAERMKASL

Tc AlaRS = target: T3, Tc AlaRS (Trypanosoma cruzi, UniProt Q4D747); test: aminoacylation of Tc tRNA-Ala with […]-Ala; settings: labelled compound, ATP
T3 construct: gene Tc00.1047053506863.10; codon-optimised synthetic gene in pET21b; C-terminal 6x-His tag; expressed in E. coli XJb(DE3)
T3 sequence (Q4D747 1-959): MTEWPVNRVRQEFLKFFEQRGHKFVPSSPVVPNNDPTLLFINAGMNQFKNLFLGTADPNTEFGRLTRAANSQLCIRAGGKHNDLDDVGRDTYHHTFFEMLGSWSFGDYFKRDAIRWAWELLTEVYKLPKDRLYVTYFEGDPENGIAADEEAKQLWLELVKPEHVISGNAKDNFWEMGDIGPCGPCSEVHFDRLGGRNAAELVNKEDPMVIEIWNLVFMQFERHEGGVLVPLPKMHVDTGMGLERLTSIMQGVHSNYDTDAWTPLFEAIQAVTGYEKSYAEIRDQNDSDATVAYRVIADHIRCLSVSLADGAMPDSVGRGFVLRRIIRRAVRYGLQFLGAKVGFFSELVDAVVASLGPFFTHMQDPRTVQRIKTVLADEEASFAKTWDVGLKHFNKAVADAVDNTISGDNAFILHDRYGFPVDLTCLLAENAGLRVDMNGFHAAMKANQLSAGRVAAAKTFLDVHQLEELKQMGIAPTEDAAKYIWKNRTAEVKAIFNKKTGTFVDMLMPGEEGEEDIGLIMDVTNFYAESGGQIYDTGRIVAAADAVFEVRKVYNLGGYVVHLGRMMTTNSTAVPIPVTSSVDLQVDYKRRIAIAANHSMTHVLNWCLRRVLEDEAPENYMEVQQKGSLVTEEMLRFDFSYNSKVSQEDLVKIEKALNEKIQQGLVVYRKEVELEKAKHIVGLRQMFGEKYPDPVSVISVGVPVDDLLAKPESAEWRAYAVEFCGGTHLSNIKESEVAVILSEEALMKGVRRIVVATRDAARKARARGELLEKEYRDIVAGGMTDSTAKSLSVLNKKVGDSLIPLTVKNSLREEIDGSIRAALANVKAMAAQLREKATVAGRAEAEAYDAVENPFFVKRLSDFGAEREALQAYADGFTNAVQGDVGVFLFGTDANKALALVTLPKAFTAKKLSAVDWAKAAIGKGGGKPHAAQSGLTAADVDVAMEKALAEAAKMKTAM

human AlaRS [2] = target: T1, human AlaRS; test: ATP/PPi exchange (amino acid activation); settings: 2 mM ATP, 2 mM [32P]-PPi, 10 mM Mg2+, pH 7.2, 37 °C, 90 μM alanine
Lm ThrRS = target: T4, Lm ThrRS (Leishmania major, UniProt E9AEW4); test: aminoacylation of Lm tRNA-Thr with […]-Thr; settings: labelled compound, ATP
T4 construct: gene LMJF_35_1410; codon-optimised synthetic gene in pTYB2; C-terminal intein tag cleaved off; expressed in E. coli BL21(DE3)
T4 sequence (E9AEW4 1-787): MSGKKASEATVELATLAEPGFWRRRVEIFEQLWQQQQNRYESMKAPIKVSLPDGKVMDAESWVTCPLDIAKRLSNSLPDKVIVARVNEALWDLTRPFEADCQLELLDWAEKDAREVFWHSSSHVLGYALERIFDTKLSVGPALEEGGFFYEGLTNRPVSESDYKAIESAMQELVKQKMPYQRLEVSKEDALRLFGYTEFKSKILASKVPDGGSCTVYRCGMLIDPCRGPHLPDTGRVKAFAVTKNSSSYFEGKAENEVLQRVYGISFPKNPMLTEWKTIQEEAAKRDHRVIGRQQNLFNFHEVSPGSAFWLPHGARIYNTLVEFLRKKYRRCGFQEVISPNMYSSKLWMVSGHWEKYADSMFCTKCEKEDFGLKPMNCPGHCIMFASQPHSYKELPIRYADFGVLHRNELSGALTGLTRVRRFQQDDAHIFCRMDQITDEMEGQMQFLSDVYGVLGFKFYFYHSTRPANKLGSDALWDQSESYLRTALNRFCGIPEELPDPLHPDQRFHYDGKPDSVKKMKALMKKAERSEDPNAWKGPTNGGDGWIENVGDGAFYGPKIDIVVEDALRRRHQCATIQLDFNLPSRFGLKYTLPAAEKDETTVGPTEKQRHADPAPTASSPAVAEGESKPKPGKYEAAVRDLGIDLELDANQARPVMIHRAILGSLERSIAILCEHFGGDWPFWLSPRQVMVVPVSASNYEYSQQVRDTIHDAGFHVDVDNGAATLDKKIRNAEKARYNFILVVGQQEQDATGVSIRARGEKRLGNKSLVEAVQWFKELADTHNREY

Nc1ncnc2c1ncn2[C@@H]1O[C@H](COP(=O)(O)OP(=O)(O)OP(=O)(O)O)[C@@H](O)[C@H]1O [ATP] was tested, and the ATP/PPi exchange (human AlaRS [1]) was “we used pyrophosphate exchange to monitor ATP-dependent amino acid activation” and the ATP/PPi exchange (Lm AlaRS) was “we used pyrophosphate exchange to monitor ATP-dependent amino acid activation”.

C[C@H](N)C(=O)O [alanine] was tested, and the “aminoacylation of Tc tRNA-Ala with [14C]-Ala” value (Tc AlaRS) was “aminoacylation inhibition assay using Tc AlaRS and tRNA^Ala” and the “ATP/PPi exchange (amino acid activation)” value (human AlaRS [2]) was “Treatment of the human AlaRS enzyme with the MNP inhibitors had no effect on amino acid activation”.

With C[C@@H](O)[C@H](N)C(=O)O [threonine] the “aminoacylation of Lm tRNA-Thr with [14C]-Thr” value (Lm ThrRS) was “re-screened against Lm Threonyl-tRNA synthetase (ThrRS) and tRNA^Thr aminoacylation”.
